Literature values as cited in patent publication US10736868B2, “Compositions comprising rumenic acid-rich conjugated linoleic acid for brain health” (STEPAN SPECIALTY PRODUCTS, LLC, priority 2016, dated 2020).
Read-outs that look alike come from different tables or passages of the source.

Legend:
[1] = test system: allergic responses mediated by inflammation; details: 8 weeks; young men and women with birch pollen allergy
[2] = molecular target: T1, PPARγ (Homo sapiens, UniProt P37231); details: human epithelial cells
T1 construct: host or cells: human epithelial cells
T1 sequence (P37231 1-505): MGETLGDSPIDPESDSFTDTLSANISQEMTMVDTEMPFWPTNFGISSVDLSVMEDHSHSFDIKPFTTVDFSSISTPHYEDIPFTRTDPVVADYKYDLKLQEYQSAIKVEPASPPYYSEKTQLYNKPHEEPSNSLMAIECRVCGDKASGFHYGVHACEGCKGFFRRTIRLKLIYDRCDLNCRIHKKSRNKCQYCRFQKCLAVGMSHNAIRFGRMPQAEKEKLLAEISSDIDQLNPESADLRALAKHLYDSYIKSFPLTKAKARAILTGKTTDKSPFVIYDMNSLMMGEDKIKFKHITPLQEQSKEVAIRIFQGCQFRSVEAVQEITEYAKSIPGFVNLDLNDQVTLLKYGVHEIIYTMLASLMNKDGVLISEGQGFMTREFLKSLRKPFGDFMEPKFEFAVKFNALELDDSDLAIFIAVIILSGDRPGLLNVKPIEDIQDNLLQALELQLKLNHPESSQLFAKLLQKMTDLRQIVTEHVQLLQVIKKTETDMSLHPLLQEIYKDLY

[3] = molecular target: T2, PPARγ (Mus musculus, UniProt P37238); details: mouse macrophage cells
T2 construct: host or cells: mouse macrophage cells
T2 sequence (P37238 1-505): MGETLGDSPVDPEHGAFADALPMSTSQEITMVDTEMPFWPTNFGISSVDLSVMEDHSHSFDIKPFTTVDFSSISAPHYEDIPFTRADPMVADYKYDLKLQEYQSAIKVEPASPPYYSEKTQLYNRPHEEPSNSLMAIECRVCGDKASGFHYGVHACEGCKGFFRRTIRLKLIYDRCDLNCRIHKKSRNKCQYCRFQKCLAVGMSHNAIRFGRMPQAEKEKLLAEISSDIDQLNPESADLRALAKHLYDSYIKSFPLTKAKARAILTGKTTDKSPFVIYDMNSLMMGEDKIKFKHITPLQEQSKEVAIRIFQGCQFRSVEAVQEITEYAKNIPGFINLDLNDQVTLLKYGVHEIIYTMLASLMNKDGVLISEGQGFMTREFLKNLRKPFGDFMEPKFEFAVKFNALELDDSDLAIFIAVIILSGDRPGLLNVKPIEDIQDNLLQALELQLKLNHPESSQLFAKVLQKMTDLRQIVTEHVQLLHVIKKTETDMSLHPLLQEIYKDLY

[4] = test system: cognitive function; details: hypertensive older adults
[5] = test system: cognitive function; details: hypertensive older adults; remark: listed apart in the source

In the case of `CCCCCC/C=C/C=C\CCCCCCCC(=O)O` [RA, cis-9, trans-11 linoleic acid], the “allergic responses mediated by inflammation” value [1] is given as “reduced”, the “inflammatory responses via activation of PPARγ” value [2] is given as “reduced” and the PPARγ activation [3] is given as “activated”.
For `CCCCc1nc(Cl)c(CO)n1Cc1ccc(-c2ccccc2-c2nn[nH]n2)cc1` [losartan], the verbal fluency [4] is listed as “not” and the “word list memory and recall” value [4] is listed as “improved”.
In the case of `CCCCC(=O)N(Cc1ccc(-c2ccccc2-c2nnn[nH]2)cc1)[C@H](C(=O)O)C(C)C` [valsartan], the “identification, verbal fluency, or word list recognition” value [5] is listed as “did not influence” and the “word list memory and recall” value [5] is listed as “improved”.
